Dmax and IC50 data for 17 molecules are collected here from US12310975B2, “Modulators of BCL6 proteolysis and associated methods of use” (Arvinas Operations, Inc., priority 2019, dated 2025).

Molecules are shown by their SMILES. Some results are limits rather than exact numbers.

The assay has as its target BCL6 (Homo sapiens (Human), UniProt P41182). In words: Immunofluorescence high content imaging of BCL6 degradation in T47D cells. The format is cell-based. The following applies: T47D cells. An outline of the steps:
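BCL6 loss was quantified by high-content imaging (10×, 4 fields/well) after PFA fixation and anti-BCL6/Alexa-488 staining with Hoechst nuclear and CellMask counterstains. Compounds were applied for 3 days to T47D breast cancer cells in RPMI-10% FBS, 11 points, 3-fold steps, top 0.1 or 1 μM.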
For the molecule `CNC(=O)COc1cc2cc(Nc3nc(N4CCC(CN5CCC6(CC5)CN(c5cccc7c5C(=O)N(C5CCC(=O)NC5=O)C7=O)C6)CC4)ncc3Cl)ccc2n(C(C)C)c1=O` (stereo not drawn) [compound 418, 2-{[6-({5-chloro-2-[4-({2-[2-(2,6-dioxopiperidin-3-yl)-1,3-dioxo-2,3-dihydro-1H-isoindol-4-yl]-2,7-diazaspiro[3.5]nonan-7-yl}methyl)piperidin-1-yl]pyrimidin-4-yl}amino)-2-oxo-1-(propan-2-yl)-1,2-dihydroquinolin-3-yl]oxy}-N-methylacetamide], the Dmax was not below 70% and the IC50 is less than 10 nM.

`CNC(=O)COc1cc2cc(Nc3nc(N4CCC(CN5CCC6(CC5)CN(c5cccc(C(=O)NC7CCC(=O)NC7=O)c5F)C6)CC4)ncc3Cl)ccc2n(C(C)C)c1=O` (stereo not drawn) [compound 419, 3-[7-({1-[5-chloro-4-({3-[(methylcarbamoyl)methoxy]-2-oxo-1-(propan-2-yl)-1,2-dihydroquinolin-6-yl}amino)pyrimidin-2-yl]piperidin-4-yl}methyl)-2,7-diazaspiro[3.5]nonan-2-yl]-N-(2,6-dioxopiperidin-3-yl)-2-fluorobenzamide]: the Dmax is not below 70%.

`CNC(=O)COc1cc2cc(Nc3nc(N4CCC(CN5CCC6(CC5)CN(c5cccc(C(=O)NC7CCC(=O)NC7=O)c5OC)C6)CC4)ncc3Cl)ccc2n(C(C)C)c1=O` (stereo not drawn) [compound 420, 3-[7-({1-[5-chloro-4-({3-[(methylcarbamoyl)methoxy]-2-oxo-1-(propan-2-yl)-1,2-dihydroquinolin-6-yl}amino)pyrimidin-2-yl]piperidin-4-yl}methyl)-2,7-diazaspiro[3.5]nonan-2-yl]-N-(2,6-dioxopiperidin-3-yl)-2-methoxybenzamide] gave a Dmax of less than 50% and an IC50 of 50 to 100 nM.

Consider `CNC(=O)COc1cc2cc(Nc3nc(N4CCC(OC5CCC6(CC5)CN(c5ccc7c(c5)C(=O)N(C5CCC(=O)NC5=O)C7=O)C6)CC4)ncc3Cl)ccc2n(C(C)C)c1=O` (stereo not drawn) [compound 421, 2-{[6-({5-chloro-2-[4-({2-[2-(2,6-dioxopiperidin-3-yl)-1,3-dioxo-2,3-dihydro-1H-isoindol-5-yl]-2-azaspiro[3.5]nonan-7-yl}oxy)piperidin-1-yl]pyrimidin-4-yl}amino)-2-oxo-1-(propan-2-yl)-1,2-dihydroquinolin-3-yl]oxy}-N-methylacetamide], for which the Dmax was not below 70% and the half-inhibitory concentration (IC50) is less than 10 nM.

As to `CNC(=O)COc1cc2cc(Nc3nc(N4CC5(CCN(CC6CCN(c7ccc8c(c7)C(=O)N(C7CCC(=O)NC7=O)C8=O)CC6)CC5)C4)ncc3Cl)ccc2n(C(C)C)c1=O` (stereo not drawn) [compound 422, 2-{[6-({5-chloro-2-[7-({1-[2-(2,6-dioxopiperidin-3-yl)-1,3-dioxo-2,3-dihydro-1H-isoindol-5-yl]piperidin-4-yl}methyl)-2,7-diazaspiro[3.5]nonan-2-yl]pyrimidin-4-yl}amino)-2-oxo-1-(propan-2-yl)-1,2-dihydroquinolin-3-yl]oxy}-N-methylacetamide], the Dmax lay within 50 to 70% and the IC50 is less than 10 nM.

The molecule `CNC(=O)COc1cc2cc(Nc3nc(N4CCN(CC5CCN(c6cccc7c6CN(C6CCC(=O)NC6=O)C7=O)CC5)CC4)ncc3Cl)ccc2n(C(C)C)c1=O` (stereo not drawn) [compound 423, 2-{[6-({5-chloro-2-[4-({1-[2-(2,6-dioxopiperidin-3-yl)-1-oxo-2,3-dihydro-1H-isoindol-4-yl]piperidin-4-yl}methyl)piperazin-1-yl]pyrimidin-4-yl}amino)-2-oxo-1-(propan-2-yl)-1,2-dihydroquinolin-3-yl]oxy}-N-methylacetamide] registered a Dmax not below 70% and a concentration for half-maximal inhibition (IC50) of less than 10 nM.

For `CNC(=O)COc1cc2cc(Nc3nc(N4CCC(OC5CC6(C5)CN(c5cccc7c5CN(C5CCC(=O)NC5=O)C7=O)C6)CC4)ncc3Cl)ccc2n(C(C)C)c1=O` (stereo not drawn) [compound 424, 2-{[6-({5-chloro-2-[4-({2-[2-(2,6-dioxopiperidin-3-yl)-1-oxo-2,3-dihydro-1H-isoindol-4-yl]-2-azaspiro[3.3]heptan-6-yl}oxy)piperidin-1-yl]pyrimidin-4-yl}amino)-2-oxo-1-(propan-2-yl)-1,2-dihydroquinolin-3-yl]oxy}-N-methylacetamide], the greatest degradation seen (Dmax) is not below 70% and the concentration for half-maximal inhibition (IC50) was in the range of 10 to 50 nM.

In turn, `CNC(=O)COc1cc2cc(Nc3nc(N4CCC(CN5CCC6(CC5)CN(c5ccc(C(=O)NC7CCC(=O)NC7=O)c(OC)c5)C6)CC4)ncc3Cl)ccc2n(C(C)C)c1=O` (stereo not drawn) [compound 425, 4-[7-({1-[5-chloro-4-({3-[(methylcarbamoyl)methoxy]-2-oxo-1-(propan-2-yl)-1,2-dihydroquinolin-6-yl}amino)pyrimidin-2-yl]piperidin-4-yl}methyl)-2,7-diazaspiro[3.5]nonan-2-yl]-N-(2,6-dioxopiperidin-3-yl)-2-methoxybenzamide] showed a Dmax of 50 to 70% and a half-inhibitory concentration (IC50) of less than 10 nM.

`CNC(=O)COc1cc2cc(Nc3nc(N4CC5(CCN(CC6CCN(c7cccc8c7C(=O)N(C7CCC(=O)NC7=O)C8=O)CC6)CC5)C4)ncc3Cl)ccc2n(C(C)C)c1=O` (stereo not drawn) [compound 426, 2-{[6-({5-chloro-2-[7-({1-[2-(2,6-dioxopiperidin-3-yl)-1,3-dioxo-2,3-dihydro-1H-isoindol-4-yl]piperidin-4-yl}methyl)-2,7-diazaspiro[3.5]nonan-2-yl]pyrimidin-4-yl}amino)-2-oxo-1-(propan-2-yl)-1,2-dihydroquinolin-3-yl]oxy}-N-methylacetamide]: the Dmax is not below 70%.

Regarding `CNC(=O)COc1cc2cc(Nc3nc(N4CCC5(CC4)CC(OC4CCN(c6cccc7c6CN(C6CCC(=O)NC6=O)C7=O)CC4)C5)ncc3Cl)ccc2n(C(C)C)c1=O` (stereo not drawn) [compound 427, 2-{[6-({5-chloro-2-[2-({1-[2-(2,6-dioxopiperidin-3-yl)-1-oxo-2,3-dihydro-1H-isoindol-4-yl]piperidin-4-yl}oxy)-7-azaspiro[3.5]nonan-7-yl]pyrimidin-4-yl}amino)-2-oxo-1-(propan-2-yl)-1,2-dihydroquinolin-3-yl]oxy}-N-methylacetamide], the Dmax is not below 70% and the IC50 is less than 10 nM.

For the molecule `CNC(=O)COc1cc2cc(Nc3nc(N4CCC(CN5CCC(c6cc(C(=O)N7CCC7)cc(N7CCC(=O)NC7=O)c6)CC5)CC4)ncc3Cl)ccc2n(C(C)C)c1=O` [compound 428, 2-{[6-({2-[4-({4-[3-(azetidine-1-carbonyl)-5-(2,4-dioxo-1,3-diazinan-1-yl)phenyl]piperidin-1-yl}methyl)piperidin-1-yl]-5-chloropyrimidin-4-yl}amino)-2-oxo-1-(propan-2-yl)-1,2-dihydroquinolin-3-yl]oxy}-N-methylacetamide], the half-inhibitory concentration (IC50) was not below 100 nM.

`CNC(=O)COc1cc2cc(Nc3nc(N4CCC(OC5CC6(C5)CN(c5ccc(C(=O)NC7CCC(=O)NC7=O)c(OC)c5)C6)CC4)ncc3Cl)ccc2n(C(C)C)c1=O` (stereo not drawn) [compound 429, 4-[6-({1-[5-chloro-4-({3-[(methylcarbamoyl)methoxy]-2-oxo-1-(propan-2-yl)-1,2-dihydroquinolin-6-yl}amino)pyrimidin-2-yl]piperidin-4-yl}oxy)-2-azaspiro[3.3]heptan-2-yl]-N-(2,6-dioxopiperidin-3-yl)-2-methoxybenzamide]: the Dmax was not below 70% and the IC50 was less than 10 nM.

For `CNC(=O)COc1cc2cc(Nc3nc(N4CCC(OC5CC6(C5)CN(c5cccc(C(=O)NC7CCC(=O)NC7=O)c5F)C6)CC4)ncc3Cl)ccc2n(C(C)C)c1=O` (stereo not drawn) [compound 430, 3-[6-({1-[5-chloro-4-({3-[(methylcarbamoyl)methoxy]-2-oxo-1-(propan-2-yl)-1,2-dihydroquinolin-6-yl}amino)pyrimidin-2-yl]piperidin-4-yl}oxy)-2-azaspiro[3.3]heptan-2-yl]-N-(2,6-dioxopiperidin-3-yl)-2-fluorobenzamide], the Dmax was in the range of 50 to 70% and the half-maximal inhibitory concentration (IC50) was in the range of 10 to 50 nM.

Take `CNC(=O)COc1cc2cc(Nc3nc(N4CCC(OC5CC6(CCN(c7ccc8c(c7)CN(C7CCC(=O)NC7=O)C8=O)CC6)C5)CC4)ncc3Cl)ccc2n(C(C)C)c1=O` (stereo not drawn) [compound 431, 2-{[6-({5-chloro-2-[4-({7-[2-(2,6-dioxopiperidin-3-yl)-1-oxo-2,3-dihydro-1H-isoindol-5-yl]-7-azaspiro[3.5]nonan-2-yl}oxy)piperidin-1-yl]pyrimidin-4-yl}amino)-2-oxo-1-(propan-2-yl)-1,2-dihydroquinolin-3-yl]oxy}-N-methylacetamide]: the Dmax was in the range of 50 to 70% and the IC50 was less than 10 nM.

In turn, `CNC(=O)COc1cc2cc(Nc3nc(N4CCC(OC5CC6(CCN(c7ccc(C(=O)NC8CCC(=O)NC8=O)c(OC)c7)CC6)C5)CC4)ncc3Cl)ccc2n(C(C)C)c1=O` (stereo not drawn) [compound 432, 4-[2-({1-[5-chloro-4-({3-[(methylcarbamoyl)methoxy]-2-oxo-1-(propan-2-yl)-1,2-dihydroquinolin-6-yl}amino)pyrimidin-2-yl]piperidin-4-yl}oxy)-7-azaspiro[3.5]nonan-7-yl]-N-(2,6-dioxopiperidin-3-yl)-2-methoxybenzamide] returned a Dmax not below 70% and an IC50 of 10 to 50 nM.

`CNC(=O)COc1cc2cc(Nc3nc(N4CCC(OC5CC6(CCN(c7cccc(C(=O)NC8CCC(=O)NC8=O)c7F)CC6)C5)CC4)ncc3Cl)ccc2n(C(C)C)c1=O` (stereo not drawn) [compound 433, 3-[2-({1-[5-chloro-4-({3-[(methylcarbamoyl)methoxy]-2-oxo-1-(propan-2-yl)-1,2-dihydroquinolin-6-yl}amino)pyrimidin-2-yl]piperidin-4-yl}oxy)-7-azaspiro[3.5]nonan-7-yl]-N-(2,6-dioxopiperidin-3-yl)-2-fluorobenzamide] had a Dmax not below 70%.

As to `CNC(=O)COc1cc2cc(Nc3nc(N4CCC(OC5CCC6(CC5)CN(c5cccc7c5C(=O)N(C5CCC(=O)NC5=O)C7=O)C6)CC4)ncc3Cl)ccc2n(C(C)C)c1=O` (stereo not drawn) [compound 434, 2-{[6-({5-chloro-2-[4-({2-[2-(2,6-dioxopiperidin-3-yl)-1,3-dioxo-2,3-dihydro-1H-isoindol-4-yl]-2-azaspiro[3.5]nonan-7-yl}oxy)piperidin-1-yl]pyrimidin-4-yl}amino)-2-oxo-1-(propan-2-yl)-1,2-dihydroquinolin-3-yl]oxy}-N-methylacetamide], the Dmax was 50 to 70% and the 50% inhibitory concentration (IC50) was less than 10 nM.
